Test results: PubChem BioAssay (NCI)
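Growth conditions: 96-well plates. Treatment: test compound, 48 hours, 5 concentrations. Analysis: linear interpolation between bracketing concentrations; unreached endpoints set to highest concentration. GI50 = concentration required for 50% inhibition of growth. TGI denotes the concentration required for complete inhibition of growth.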

Legend:
Experiment in all cases: NCI-60 cell line screen, 48 h
[1] = tested on: LOX IMVI melanoma
[2] = tested on: HT29 colon
[3] = tested on: SF-268 CNS
[4] = tested on: HOP-92 NSCLC
[5] = tested on: OVCAR-5 ovarian
[6] = tested on: SNB-75 CNS
[7] = tested on: K-562 leukemia
[8] = tested on: SK-MEL-5 melanoma
[9] = tested on: HL-60(TB) leukemia
[10] = tested on: CCRF-CEM leukemia

SMILES | TGI [1] [µM] | TGI [2] [µM] | TGI [3] [µM] | TGI [4] [µM] | TGI [5] [µM] | TGI [6] [µM] | TGI [7] [µM] | TGI [8] [µM] | TGI [9] [µM] | TGI [10] [µM] | GI50 [1] [µM] | GI50 [2] [µM] | GI50 [3] [µM] | GI50 [4] [µM] | GI50 [5] [µM] | GI50 [6] [µM] | GI50 [7] [µM] | GI50 [8] [µM] | GI50 [10] [µM] | GI50 [9] [µM]
Nc1nc2nc3c(nc2c(=O)[nH]1)CN(c1ccc(C(=O)O)cc1)C3=O | > 100 | > 100 | > 100 | > 100 | > 100 | > 100 | > 100 | > 100 |  |  |  |  |  |  |  |  |  |  |  | 
CC1CN(CCO)CC(C)O1 (stereo not drawn) |  | > 100 | > 100 | > 100 | > 100 | > 100 | > 100 | > 100 | > 100 | > 100 |  |  |  |  |  |  |  |  |  | 
CCCCC1(N=[N+]=[N-])C(=O)c2cccc3c2N(CCC3)C1=O (stereo not drawn) | > 100 | > 100 | > 100 | > 100 | > 100 | > 100 | > 100 | > 100 |  | > 100 |  |  |  |  |  |  |  |  |  | 
[N-]=[N+]=Nc1ccc(S(=O)(=O)Oc2cc(OS(=O)(=O)c3ccc(N=[N+]=[N-])cc3)cc(OS(=O)(=O)c3ccc(N=[N+]=[N-])cc3)c2)cc1 | > 100 | > 100 | > 100 | > 100 | > 100 | > 10 | > 100 | > 100 |  | > 100 |  |  |  |  |  |  |  |  |  | 
CCOP1(=O)OCC2OC(n3cnc4c(N)ncnc43)C(O)C2O1 (stereo not drawn) | > 100 | > 100 | > 100 | > 100 | > 100 | > 100 | > 100 | > 100 | > 100 |  |  |  |  |  |  |  |  |  |  | 
C=CCCc1cc(OC)ccc1CN(C)C(C)(C)CO | > 100 | > 100 | > 100 | > 100 | > 100 | > 100 | > 100 | > 100 |  | > 100 |  |  |  |  |  |  |  |  |  | 
CCCCc1ccc2nc(NC(=O)OC)[nH]c2c1 | > 55.9 |  | 16.9 | > 63 | > 100 | 1.18 | > 100 | 2.57 |  |  | 0.0789 | 0.0377 | 0.0616 | 0.697 | 1.4 | 0.0257 | 0.0337 | 0.035 | 0.0342 | 
O=c1c(Cl)nsnc1Cl | 27.2 | 60.2 | 71.3 | 13 | 38.6 | > 53.1 | 3.58 | 32.8 |  | 3.27 |  |  |  |  |  |  |  |  |  | 
CC(=O)Oc1c(-c2ccccc2)[nH]c2cc([N+](=O)[O-])c(/C(Cl)=C/c3ccccc3)cc12 |  | 11.1 | > 100 | 18.3 | 17.7 | > 100 | > 100 | 3.75 | 10.7 | 29.5 |  |  |  |  |  |  |  |  |  | 
Clc1ccc(Cl)c(N/N=C\c2c[nH]c3ccccc23)c1 | 74.7 |  | > 100 | 8.37 | 36.9 |  | 17.7 | 23.1 |  | 11.7 | 4.21 |  | > 100 | 1.13 | 17.3 |  | 1.83 | 10 | 0.107 | 
Cc1cc2c(-c3nc4ccccc4[nH]3)c(O)c(O)cc2c(O)c1-c1c(C)cc2c(-c3nc4ccccc4[nH]3)c(O)c(O)cc2c1O |  | > 24.4 | 3.72 | 1.54 | > 20.3 | 2.11 | > 50 |  | > 50 | > 50 |  | 0.0217 | 0.0312 | 0.0232 | 0.0852 | 0.0389 | 0.0199 |  | 0.0113 | 0.0328
CN(C)CCCn1cnc2ncccc2c1=O | > 100 | > 100 | > 100 | > 100 | > 100 | > 100 | > 100 | > 100 |  | > 100 |  |  |  |  |  |  |  |  |  | 
CC(C)NC(=O)OCc1nnn2c1C(OC(=O)NC(C)C)CC2 (stereo not drawn) |  | > 100 |  | > 100 | > 100 | > 100 | > 100 | > 100 |  |  |  |  |  |  |  |  |  |  |  | 
O=c1[nH]nc(-c2ccccc2)c(-c2ccccc2)c1-n1nc(-c2ccccc2)c2ccccc2c1=O |  | > 100 | > 100 | > 100 | > 100 | > 100 | > 100 | > 100 |  | > 100 |  |  |  |  |  |  |  |  |  | 
C1=C[C@@H]2c3ccc4cnccc4c3NC[C@@H]2C1 |  |  | > 100 | > 100 | > 100 | > 100 | > 100 | > 100 | > 100 | > 100 |  |  |  |  |  |  |  |  |  | 
FC(F)(F)c1ccc2nc(-c3nc(-c4ccccc4)n4ccccc34)[nH]c2c1 |  | 11.1 | > 100 | 17.4 | 47.2 | 3.94 | > 100 | 5.55 | > 100 | > 100 |  | 3.47 | 5.63 | 3.66 | 6.77 | 1.68 | 11 | 1.9 | 5.64 | 27.8
CCS[C@H]1NC(=O)C1[C@H](C)O[Si](C)(C)C(C)(C)C (stereo partly drawn) | > 100 | > 100 | > 100 | > 100 | > 100 | > 100 | > 100 |  |  |  |  |  |  |  |  |  |  |  |  | 
